The text below walks through data of patent US20130209985A1, “SAMPLE COLLECTION DEVICES WITH BLOOD STABILIZING AGENTS” (priority 2012, published 2013).

The structures appear in SMILES notation.

Experiment [1] relates to CD62P (P-selectin) surface expression on platelets. The experiment is described as follows: Whole blood flow cytometry of platelet CD62P surface expression (α-granule release). It is filed as cell-based. As to conditions: for frequency of CD62P expression (CD62P+ platelets) / median PE fluorescence (CD62P): Example 1; for CD62P expression: Example 2, iloprost 0.5 μM where added, mean of 3 subjects; for MFI Over Time (CD62P, all platelet events): Example 3, 10 subjects. The source says: (§1) Platelet activation can result in a robust and rapid release of α-granules, dense granules, and lysosomes, the contents of which serve to promote a variety of autocrine and paracrine signal transduction events. CD62P (P-selectin) is an adhesion molecule that is transiently expressed on the platelet plasma membrane following α-granule release and can mediate platelet-leukocyte aggregates via ligation with leukocyte expressed P-selectin glycoprotein ligand 1 (PSGL-1/CD162). Dense granule and lysosome release can be measured, although not distinguished, with CD63 surface expression.
(§2) The effect of EDTA on platelet activation, as judged by CD62P and CD63 surface expression, was evaluated in the presence or absence of the platelet stabilization agent (iloprost). Whole blood was collected into tubes containing EDTA or EDTA with iloprost at 0.5, 5 and 50 μM final concentration. Antibody cocktails containing previously determined amounts of αCD61 PerCP, αCD62P PE, αCD63 Alexa Fluor® 647, and/or appropriate isotype controls were added to a conical bottom micro titer plate. A modified HEPES-Tyrode's buffer was used to equilibrate the final volume to 100 μL for each staining reaction. Platelet surface staining was performed by adding 5 μL of whole blood to the appropriate staining mix and incubating at RT under dark conditions for 15 minutes. Afterwards, the entire reaction was transferred to 5 mL round bottom polystyrene snap cap tubes containing 1 mL of HEPES-Tyrode's buffer for a final dilution of each sample. Samples were briefly vortexed and data was acquired using a BD FACScalibur instrument. FSC and SSC settings were established on the log scale in order to discern platelet size and morphology from RBC and WBC populations. In order to further discriminate platelet-specific events, a PerCP alone control was used to establish a CD61^+ gate. Since CD63 is not a platelet specific marker it was necessary to further gate on the single platelet morphology population to avoid a CD63 signature from the platelet-bound leukocytes. The PerCP alone control was also used to set fluorescence detector voltages for CD62P^−/CD63^− populations. Once voltage and compensation settings were finalized, 10,000 CD61^+/single platelet events were acquired for each test sample.
The effect of iloprost on platelet activation was studied in the presence of strong platelet-activating agents, ADP and thrombin-receptor activating peptide (TRAP). Platelet stimulations were performed by adding 300 μL blood to micro-centrifuge tubes containing 10 μL of saline (0.85%), ADP, or TRAP-6 and incubating for approximately 2 min at RT. Final concentrations of ADP and TRAP-6 were 6.5 μM and 32 μM, respectively. Afterwards, whole blood flow cytometry was performed as described above. Blood collection and flow cytometry was performed as described in example 1.
The effect of iloprost on platelet degranulation was measured in EDTA and EDTA/protease inhibitor background. Whole blood was collected into tubes containing EDTA, EDTA with iloprost, a protease inhibitor cocktail (“PIC”, which included one protease inhibitor from each class of inhibitor described in Table II in U.S. Pat. No. 7,309,468), and the cocktail with iloprost. Whole blood flow cytometry to measure CD62P expression was performed as described in example 1.
In general terms: A flow cytometer gives signals particle by particle.

The subject of experiment [2] is platelets (platelet clumping). The experiment is described as follows: Complete blood count and hematology parameters, Sysmex XE-2100. Format: cell-based. The note with it: compared to EDTA alone.
The test system of a further experiment is TGFβ1. The experiment is described as follows: Plasma biomarker release, ELISA. Format: cell-based. The note with it: 0, 2, 8 and 24 hr sample dwell; relative to EDTA alone. On the procedure:
(§3) Blood was collected as described in example 1. Plasma was prepared at indicated timepoints (0, 2, 8 and 24 hr sample dwell) by centrifuging the tubes at 3000 rcf for 10 min. and was used to measure levels of PDGFa/a, TGFβ1, VEGF, IL-8 (CXCL8), and RANTES (CCL5) using commercially available ELISA kits, per manufacturer's instructions.
In general terms: An ELISA detects its analyte on a solid surface through an enzyme-linked reagent.

A further experiment has as its system VEGF. The experiment is described as follows: Plasma biomarker release, ELISA. It is filed as cell-based. As to conditions: 0, 2, 8 and 24 hr sample dwell; relative to EDTA alone. As for the experimental part: as §3
A further experiment deals with PDGFa/a. The experiment is described as follows: Plasma biomarker release, ELISA. It is filed as cell-based. As to conditions: 0, 2, 8 and 24 hr sample dwell; relative to EDTA alone. On the procedure:
as §3

The test system of the next experiment is RANTES (CCL5). The experiment is described as follows: Plasma biomarker release, ELISA. The note with it: 0, 2, 8 and 24 hr sample dwell; relative to EDTA alone. Format: cell-based. On the procedure: as §3
A further experiment relates to IL-8 (CXCL8). The experiment is described as follows: Plasma biomarker release, ELISA. Format: cell-based. The note with it: EDTA with iloprost versus EDTA alone. On the procedure: as §3
Experiment [3] relates to platelet-leukocyte aggregates. The experiment is described as follows: Leukocyte-platelet aggregates by flow cytometry (αCD61/αCD45). Format: cell-based. As to conditions: t=0, 4, 24 and 144 hr of sample dwell; versus EDTA alone; 6 subjects. From the text:
Blood was collected as described in example 1. Antibody cocktails containing previously determined amounts of αCD61 (platelet marker), αCD45 (leukocyte marker) and/or appropriate isotype controls were used to detect the platelet-leukocyte aggregates at t=0, 4, 24 and 144 hr of sample dwell with the use of flow cytometry as described in example 1. […] Data representative of 6 subjects.

For experiment [4], the system named is CD63 surface expression on platelets. The experiment is described as follows: Whole blood flow cytometry of platelet CD63 surface expression (dense granule/lysosome release). Format: cell-based. The note with it: Example 2; for CD63 surface expression: EDTA without iloprost.
Source text: as §1
as §2, with “Since CD63 is not a platelet specific marker it was necessary to further gate on the single platelet morphology population to avoid a CD63 signature from the platelet-bound leukocytes.” left out, “Once voltage and compensation settings were finalized, 10,000 CD61^+/single platelet events were acquired for each test sample.” left out

The target of experiment [5] is acetylcholinesterase (AChE) (Homo sapiens, UniProt P22303). The note with it: read-out: Ki for AChE; cited from earlier work.
acetylcholinesterase (AChE), sequence (P22303 32-614, species assumed): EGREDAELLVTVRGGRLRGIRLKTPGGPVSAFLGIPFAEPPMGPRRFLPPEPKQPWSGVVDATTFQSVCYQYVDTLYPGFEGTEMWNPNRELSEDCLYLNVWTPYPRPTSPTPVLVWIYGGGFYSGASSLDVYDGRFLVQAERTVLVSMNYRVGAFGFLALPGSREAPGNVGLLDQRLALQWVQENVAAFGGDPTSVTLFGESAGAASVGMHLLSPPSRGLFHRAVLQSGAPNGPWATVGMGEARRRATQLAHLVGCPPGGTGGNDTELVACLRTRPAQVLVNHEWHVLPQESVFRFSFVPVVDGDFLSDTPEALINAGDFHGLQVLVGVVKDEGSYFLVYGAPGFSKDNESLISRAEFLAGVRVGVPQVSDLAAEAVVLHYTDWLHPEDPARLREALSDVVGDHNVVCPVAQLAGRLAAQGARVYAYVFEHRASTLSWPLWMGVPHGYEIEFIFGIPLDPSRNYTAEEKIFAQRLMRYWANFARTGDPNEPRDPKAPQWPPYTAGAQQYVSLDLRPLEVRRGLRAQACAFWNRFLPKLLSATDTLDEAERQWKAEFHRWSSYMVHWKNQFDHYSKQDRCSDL
Setting [6] is: whole blood in EDTA, iloprost 0.5 μM.
The mark [7] stands for this setting: whole blood in EDTA, iloprost 5 μM.
The mark [8] stands for this setting: whole blood in EDTA, iloprost 50 μM.

Consider `CC#CCC(C)[C@H](O)/C=C/[C@@H]1[C@H]2C/C(=C/CCCC(=O)O)C[C@H]2C[C@H]1O` (some centres unmarked) [iloprost], for which the “frequency of CD62P expression (CD62P+ platelets)” value in experiment [1] (setting [6]) is 15.0%; in experiment [1] (setting [7]), 14.1%; in [1] (setting [8]), 13.9%. Moreover, the “median PE fluorescence (CD62P)” value in experiment [1] (setting [6]) was found to be 7.31; in experiment [1] (setting [7]) it was 7.12; in experiment [1] (setting [8]), 7.06. Moreover, the CD62P expression in experiment [1] (ADP 6.5 μM activated) stood at 17.3%; in [1] (TRAP-6 32 μM activated), 33.4%; in [1] (resting samples (saline)), 15.0%. Besides, in experiment [1] (Example 10, both EDTA and PIC backgrounds, 5 subjects), the “percentage of CD62+ events” value was “reduced”. The “mean platelet volume (MPV)” value in experiment [2] (p<0.001, Paired Test) was “lower”. Also, the “decrease in platelet clumps” value in [2] (study of 300 normal healthy subjects) is listed as 40%. The “expression of TGFβ1 in plasma” value with TGFβ1 was “reduced”. For the same compound, the “expression of VEGF in plasma” value in the experiment with VEGF is listed as “reduced”. Further, the “expression of PDGFa/a in plasma” value in the experiment on PDGFa/a was “reduced”. Besides, the “expression of RANTES in plasma” value in the experiment with RANTES (CCL5) is given as “reduced”. Further, in the experiment on IL-8 (CXCL8), the “expression of IL-8 in plasma” value is “similar”. Also, in [3], the “percentage of leukocyte-bound platelets” value is on record as “reduced”.

Turning to `O=C(O)CN(CCN(CC(=O)O)CC(=O)O)CC(=O)O` [EDTA, Ethylenediamine tetraacetic acid], in [1] (whole blood in EDTA alone), the “median PE fluorescence (CD62P)” value is listed as 44.7. For the same compound, the “frequency of CD62P expression (CD62P+ platelets)” value in [1] (whole blood in EDTA alone, no iloprost) was 44.7%. In addition, the figures for the CD62P expression in [1] (ADP 6.5 μM activated), in [1] (TRAP-6 32 μM activated) and in [1] (resting samples (saline)) were 85.1%, 99.4% and 44.6%, respectively. The “MFI Over Time (CD62P, all platelet events)” value in experiment [1] (0 hrs sample dwell) was found to be 20.21; in experiment [1] (2 hrs sample dwell) it was 42.66; in [1] (8 hrs sample dwell), 33.14; in experiment [1] (24 hrs sample dwell), 63.02. Moreover, the “MFI (CD62P, all platelet events)” value in experiment [1] (Example 10, 5 subjects) worked out at 171.56. Also, the CD63 surface expression in experiment [4] (ADP 6.5 μM) came out at 7.67%; in experiment [4] (unstimulated), 2.13%. In experiment [4] (TRAP-6 32 μM stimulated, iloprost 0.5, 5, 50 μM where added), the CD63 expression was 69.3%.

With `CCC1=CC2Cc3nc4cc(Cl)ccc4c(N)c3C(C1)C2` [Huprine X, (1S)-7-chloro-15-ethyl-10-azatetracyclo[11.3.1.0̂{2,11}.0̂{4,9}]heptadeca-2(11),3,5,7,9,14-hexane-3-amine], the Ki in experiment [5] was 0.026 nM.

The term Ki denotes the equilibrium dissociation constant of an inhibitor or competing ligand from its target.
